Laboratory results as given in EP4516280A1, “COSMETIC COMPOSITIONS” (The Boots Company plc, priority 2023, dated 2025).

Test system: mushroom tyrosinase
Experiment: Tyrosinase inhibition test (L-DOPA oxidation, absorbance at 470 nm)
Assay type: biochemical
Conditions: single compound, Concentration 0.1%
Text: The tyrosinase inhibition test was used to determine the tyrosinase inhibition ability of the compounds. The test comprises adding the test compound to a solution of L-dihydroxyphenylalanine (L-(DOPA)) and mushroom tyrosinase. L-(DOPA) is converted to […] by the mushroom tyrosinase, causing a brown colour to form. Inhibition of this reaction prevents the brown colour formation. The lighter the colour at the end of the reaction, the stronger is the inhibitory effect of the active. Absorbance data may be collected using a plate reacted set up to have a kinetic read every 1 minute for 30 minutes, where absorbance is read at 470 nm.

| Compound | Tyrosinase Inhibition (%) |
| --- | --- |
| O=C(O)C(O)c1ccccc1 (centres unmarked) [B, Mandelic acid] | 80.279 |
| C=C(C)[C@@H]1CCC(C)=C[C@H]1c1c(O)cc(CCCCC)cc1O [G, Cannabidiol isolate (CBD)] | 9.134 |
| CC1(C)[C@@H](O[C@H]2O[C@H](C(=O)[O-])[C@@H](O)[C@H](O)[C@H]2O[C@@H]2O[C@H](C(=O)[O-])[C@@H](O)[C@H](O)[C@H]2O)CC[C@]2(C)[C@H]3C(=O)C=C4[C@@H]5C[C@@](C)(C(=O)O)CC[C@]5(C)CC[C@@]4(C)[C@]3(C)CC[C@@H]12.[K+].[K+] [H, Dipotassium glycyrrhizate (DPG)] | 54.567 |
| CCCCCCCCCCCCCCC[C@@H](O)[C@@H](N)CO [K, Sphinganine] | -5.78 |
| Feruloyl oligopeptide-33 | 41.765 |
